From US4160829A, “Antibacterial 1,2,4-oxadiazolylacetamido cephalosporins” (Gist-Brocades N.V., priority 1972, dated 1979)
Values after ≈ are worked out from the molar mass of the structure shown. Where two headings read alike, the source gives them in different places.

Legend:
Bac.Subt.ATCC 6633 = experiment: agar serial dilution test; type: cell-based, Bacillus subtilis; conditions: Bacillus subtilis, ATCC6633, 24 h, agar serial dilution, 24 hours, 37° C.; read-out: minimal inhibitory concentration (MIC)
Staph.aureus A 321 = experiment: agar serial dilution test; type: cell-based, Staphylococcus aureus; conditions: Staphylococcus aureus, A321, 24 h, agar serial dilution, 24 hours, 37° C.; read-out: minimal inhibitory concentration (MIC)
Staph.aureus A 2000 [1] = experiment: agar serial dilution test; type: cell-based, Staphylococcus aureus; conditions: Staphylococcus aureus, A2000, 24 h, agar serial dilution, 24 hours, 37° C.; read-out: minimal inhibitory concentration (MIC)
Staph.aureus A 2001 [2] = experiment: agar serial dilution test; type: cell-based, Staphylococcus aureus; conditions: Staphylococcus aureus, A2001, 24 h, agar serial dilution, 24 hours, 37° C.; read-out: minimal inhibitory concentration (MIC)
Strep.haem. A 266 = experiment: agar serial dilution test; type: cell-based, Streptococcus haemolyticus; conditions: Streptococcus; agar serial dilution, 24 hours, 37° C.; read-out: minimal inhibitory concentration (MIC)
Strep. faec. L 80 = experiment: agar serial dilution test; type: cell-based, Streptococcus faecalis; conditions: Enterococcus faecalis; agar serial dilution, 24 hours, 37° C.; read-out: minimal inhibitory concentration (MIC)
Dipl.pneum. L 54 = experiment: agar serial dilution test; type: cell-based, Diplococcus pneumoniae; conditions: Streptococcus pneumoniae; agar serial dilution, 24 hours, 37° C.; read-out: minimal inhibitory concentration (MIC)
Past.multo. A 723 = experiment: agar serial dilution test; type: cell-based, Pasteurella multocida; conditions: Pasteurella multocida; agar serial dilution, 24 hours, 37° C.; read-out: minimal inhibitory concentration (MIC)
Kleb.pneum. A 809 [3] = experiment: agar serial dilution test; type: cell-based, Klebsiella pneumoniae; conditions: Klebsiella pneumoniae; agar serial dilution, 24 hours, 37° C.; read-out: minimal inhibitory concentration (MIC)
Salm.dubl. P 43 = experiment: agar serial dilution test; type: cell-based, Salmonella dublin; conditions: Salmonella enterica; agar serial dilution, 24 hours, 37° C.; read-out: minimal inhibitory concentration (MIC)
Salm.typh. R 127 [4] = experiment: agar serial dilution test; type: cell-based; conditions: 24 h, 37° C., read-out: minimal inhibitory concentration (MIC)
Esch.coli U 20 = experiment: agar serial dilution test; type: cell-based, Escherichia coli; conditions: Escherichia coli
Shig.equir. T 3 = experiment: agar serial dilution test; type: cell-based; conditions: 37° C.; for MIC: 24 h, read-out: minimal inhibitory concentration (MIC)
Pseud.aerug. H 10 = experiment: agar serial dilution test; type: cell-based; conditions: agar serial dilution, 24 hours, 37° C.; read-out: minimal inhibitory concentration (MIC)
Pseud.aerug. 2396 = experiment: agar serial dilution test; type: cell-based; conditions: agar serial dilution, 24 hours, 37° C.; read-out: minimal inhibitory concentration (MIC)
[5] = tested on: Pseud.aerug. Wyeth A 1058; experiment: agar serial dilution test; type: cell-based; conditions: agar serial dilution, 24 hours, 37° C.; read-out: minimal inhibitory concentration (MIC)
Prot.rettg. A 821 = experiment: agar serial dilution test; type: cell-based, Proteus rettgeri; conditions: Providencia rettgeri, 24 h, read-out: minimal inhibitory concentration (MIC)
Prot.mirab. H 3 = experiment: agar serial dilution test; type: cell-based, Proteus mirabilis; conditions: Proteus mirabilis
Prot.mirab. L 93 = experiment: agar serial dilution test; type: cell-based, Proteus mirabilis; conditions: Proteus mirabilis
Prot.mirab. A 1200 = experiment: agar serial dilution test; type: cell-based, Proteus mirabilis; conditions: agar serial dilution, 24 hours, 37° C.
Prot.morg. 2241 = experiment: agar serial dilution test; type: cell-based; conditions: 24 h, agar serial dilution, 24 hours, 37° C.; read-out: minimal inhibitory concentration (MIC)
Staph.aureus A 355 [6] = experiment: micro serial dilution test; type: cell-based, Staphylococcus aureus; conditions: Staphylococcus aureus, A355; micro serial dilution (in brackets), about 18 hours, 30° C. or 37° C.; penicillinase-producing strain; read-out: minimal inhibitory concentration (MIC)
Staph.aureus A 2000 [7] = experiment: micro serial dilution test; type: cell-based, Staphylococcus aureus; conditions: Staphylococcus aureus, A2000, 18 h, micro serial dilution (in brackets), about 18 hours, 30° C. or 37° C.; read-out: minimal inhibitory concentration (MIC)
Staph.aureus A 2001 [8] = experiment: micro serial dilution test; type: cell-based, Staphylococcus aureus; conditions: Staphylococcus aureus, A2001, 18 h, micro serial dilution (in brackets), about 18 hours, 30° C. or 37° C.; read-out: minimal inhibitory concentration (MIC)
[9] = tested on: penicillin resistant Staphylococcus aureus strain; experiment: protection test; type: in vivo; conditions: sc
From the text: The compound may preferably be used parenterally.

Staph.aureus A 355 [10] = experiment: agar serial dilution test; conditions: Staphylococcus aureus, A355, 24 h, read-out: minimal inhibitory concentration (MIC), agar serial dilution, 24 hours, 37° C.; penicillinase-producing strain
[11] = tests with mice, blood levels and urine activity
Bruc.melit. A 488 = experiment: microbe, parasite or virus in culture; type: cell-based; conditions: Brucella melitensis, 24 h, read-out: minimal inhibitory concentration (MIC)
Kleb.pneum. A 809 [12] = experiment: micro serial dilution test; type: cell-based; conditions: Klebsiella pneumoniae; micro serial dilution (in brackets), about 18 hours, 30° C. or 37° C.; read-out: minimal inhibitory concentration (MIC)
Salm.typh. R 127 [13] = experiment: micro serial dilution test; type: cell-based; conditions: micro serial dilution (in brackets), about 18 hours, 30° C. or 37° C.; read-out: minimal inhibitory concentration (MIC)
From the text: Two drops of a stock solution of the test compound (antibiotic) in a known concentration were brought into the first hole of a test plate with 9 numbered holes with a sterile Pasteur pipette. After rinsing this pipette three times with a physiological NaCl-solution, two drops of a stock solution of the test organism in a culture medium were brought in all the holes except for hole 8. In the first hole, the solution of the tested compound had been half diluted, then by stirring the liquid in the first hole and adding two drops of this mixture to the second hole and so on until hole 8, dilutions of the test compound solution were obtained in geometrical progression. The hole 9 contained no antibiotic and served for checking the growth of the testogranism in a blank medium. The test plate was incubated at 30° C. or 37° C. for about 18 hours.

acute toxicity in mice = conditions: mouse, in vivo, ip; mice (Swiss), one intraperitoneal administration
Description: (a) For sodium 7-[(3-methyl-1,2,4-oxadiazol-5-yl)-acetamido]-cephalosporanate (as prepared in Example 10), the acute toxicity was determined in mice (Swiss) with one intraperitoneal administration. The LD50 appeared to be >6000 mg/kg (Cephalotin-LD50 >6000 mg/kg).

[14] = tested on: Staph. aureus pen.resistant; experiment: protection test; type: in vivo; conditions: Staphylococcus aureus, sc
Proteus rettgeri = experiment: protection test; type: in vivo; conditions: Providencia rettgeri, sc
Klebsiella pneumoniae = experiment: protection test; type: in vivo; conditions: ip
Escherichia coli = experiment: protection test; type: in vivo; conditions: ip
[15] = agar serial dilution, 24 hours, 37° C., read-out: minimal inhibitory concentration (MIC)
[16] = 24 h, read-out: minimal inhibitory concentration (MIC), agar serial dilution, 24 hours, 37° C.

SMILES | MIC (Bac.Subt.ATCC 6633) | MIC (Staph.aureus A 321) | MIC (Staph.aureus A 2000 [1]) | MIC (Strep.haem. A 266) | MIC (Strep. faec. L 80) | MIC (Dipl.pneum. L 54) | MIC (Past.multo. A 723) | MIC (Kleb.pneum. A 809 [3]) | MIC (Salm.dubl. P 43) | MIC (Shig.equir. T 3) | MIC (Pseud.aerug. H 10) | MIC (Pseud.aerug. 2396) | MIC [5] | MIC (Prot.rettg. A 821) | MIC (Prot.mirab. L 93; [15]) | MIC (Prot.morg. 2241) | MIC (Staph.aureus A 355 [10]) | further results
COCc1noc(CC(=O)N[C@@H]2C(=O)N3C(C(=O)O)=C(COC(C)=O)CS[C@H]23)n1 [Example 37, 7-[3-methoxymethyl-1,2,4-oxadiazol-5-yl-acetamido]-cephalosporanic acid] | 0.12 µg/mL (≈ 0.281 µM) | 0.5 µg/mL (≈ 1.17 µM) | 1.5 µg/mL (≈ 3.52 µM) | 0.12 µg/mL (≈ 0.281 µM) | 50 µg/mL (≈ 117 µM) | 0.75 µg/mL (≈ 1.76 µM) | 1 µg/mL (≈ 2.35 µM) | 3 µg/mL (≈ 7.04 µM) | 3 µg/mL (≈ 7.04 µM) | 3 µg/mL (≈ 7.04 µM) | > 100 µg/mL | > 100 µg/mL | > 100 µg/mL | 12.5 µg/mL (≈ 29.3 µM) | 6 µg/mL (≈ 14.1 µM) | > 100 µg/mL | 1.5 µg/mL (≈ 3.52 µM) | MIC (Staph.aureus A 2001 [2]): 0.75 µg/mL (≈ 1.76 µM); MIC (Salm.typh. R 127 [4]): 12.5 µg/mL (≈ 29.3 µM); MIC (Esch.coli U 20; U20, 24 h, read-out: minimal inhibitory concentration (MIC), agar serial dilution, 24 hours, 37° C.): 12.5 µg/mL (≈ 29.3 µM); minimal inhibitory concentration (MIC) (Shig.equir. T 3; 24 hours): 6 µg/mL (≈ 14.1 µM); MIC (Prot.rettg. A 821; agar serial dilution, 24 hours, 37° C.): 3 µg/mL (≈ 7.04 µM); MIC (Prot.mirab. H 3; [15]): 25 µg/mL (≈ 58.6 µM); MIC (Prot.mirab. L 93; [16]): 12.5 µg/mL (≈ 29.3 µM); MIC (Prot.mirab. A 1200; Proteus mirabilis, 24 h, read-out: minimal inhibitory concentration (MIC)): 50 µg/mL (≈ 117 µM); minimal inhibitory concentration (MIC) (Prot.mirab. A 1200): 100 µg/mL (≈ 235 µM); MIC (Staph.aureus A 355 [6]): 0.9 µg/mL (≈ 2.11 µM); MIC (Staph.aureus A 2000 [7]): 0.6 µg/mL (≈ 1.41 µM); MIC (Staph.aureus A 2001 [8]): 0.45 µg/mL (≈ 1.06 µM); ED50 ([9]; protection test, subcutanal administration, read-out: ED50): 1.2 mg/kg; blood levels (in words) [11]: good blood levels; urine activity against pathogenic germs (in words) [11]: strong urine activity against pathogenic germs
CC(=O)OCC1=C(C(=O)O)N2C(=O)[C@@H](NC(=O)Cc3cccs3)[C@H]2SC1 [Cephalotin, reference compound] | 0.12 µg/mL (≈ 0.303 µM) | 0.5 µg/mL (≈ 1.26 µM) | 0.5 µg/mL (≈ 1.26 µM) | 0.06 µg/mL (≈ 0.151 µM) | 25 µg/mL (≈ 63.1 µM) | 0.5 µg/mL (≈ 1.26 µM) | 0.7 µg/mL (≈ 1.77 µM) | 0.7 µg/mL (≈ 1.77 µM) | 1.5 µg/mL (≈ 3.78 µM) | 1.5 µg/mL (≈ 3.78 µM) | > 100 µg/mL | > 100 µg/mL | > 100 µg/mL | 12.5 µg/mL (≈ 31.5 µM) | 0.6 µg/mL (≈ 1.51 µM) | > 100 µg/mL | 0.5 µg/mL (≈ 1.26 µM) | MIC (Bruc.melit. A 488): 6 µg/mL (≈ 15.1 µM); MIC (Esch.coli U 20; U20, agar serial dilution, 24 hours, 37° C., read-out: minimal inhibitory concentration (MIC)): 3 µg/mL (≈ 7.57 µM); MIC (Prot.mirab. H 3; [16]): 12.5 µg/mL (≈ 31.5 µM); MIC (Kleb.pneum. A 809 [12]): 0.37 µg/mL (≈ 0.933 µM); MIC (Salm.typh. R 127 [13]): 3 µg/mL (≈ 7.57 µM); LD50 (acute toxicity in mice): > 6000 mg/kg; ED50 [14]: 37.6 mg/kg; ED50 (Proteus rettgeri): 4.34 mg/kg; ED50 (Klebsiella pneumoniae): 0.8 mg/kg; ED50 (Escherichia coli): > 300 mg/kg; ED50 [9]: 1.3 mg/kg
